One may read the CC50 as the concentration at which the toxic effect on the cells reaches its halfway point. The term IC50 denotes the point on the concentration scale where inhibition reaches its midpoint.

Structures are written as SMILES. Where a SMILES comes first, the peptide text is derived from it. Bounds are passed on as bounds.

For the first data set, the system named is Vero cells.
Assay: not given
The note with it: cited from earlier work.
On to `CC(ON1C(C)(C)CCCC1(C)C)c1ccc(NC(=O)[C@H](Cc2ccccc2)NC(=O)[C@@H](NC(=O)[C@H](Cc2ccccc2)NC(=O)OC(C)(C)C)C(C)C)cc1` (stereo partly drawn) [A3L, Boc-Phe-Val-Phe-anilide-TEMPO], for which the CC50 was more than 50 µM.

Regarding `CC(ON1C(C)(C)CCCC1(C)C)c1ccc(NC(=O)[C@H](Cc2ccccc2)NC(=O)[C@@H](NC(=O)[C@@H](N)Cc2ccccc2)C(C)C)cc1` (stereo partly drawn) [A4L], the CC50 was more than 50 µM.

On to `CC(ON1C(C)(C)CCCC1(C)C)c1ccc(NC(=O)[C@H](Cc2ccccc2)NC(=O)[C@@H](NC(=O)[C@@H](N)Cc2ccccc2)C(C)C)cc1` (stereo partly drawn) [A5L], for which the CC50 was more than 50 µM.

Consider `CC(C)[C@H](NC(=O)[C@@H](N)Cc1ccccc1)C(=O)N[C@@H](Cc1ccccc1)C(=O)O` [P11L] (H-Phe-Val-Phe-OH), for which the CC50 is more than 50 µM.

Turning to `CC(C)[C@H](NC(=O)[C@H](Cc1ccccc1)NC(=O)CCC(=O)OCc1ccccc1)C(=O)N[C@@H](Cc1ccccc1)C(=O)O` [P12L], the CC50 was more than 50 µM.

For `CC(C)[C@H](NC(=O)[C@@H](N)Cc1ccccc1)C(=O)N[C@@H](Cc1ccccc1)C(=O)O` [P18L] (H-Phe-Val-Phe-OH), the CC50 is more than 25 µM.

On to `CCc1ccc(NC(=O)[C@@H](Cc2ccccc2)NC(=O)[C@H](NC(=O)[C@@H](Cc2ccccc2)NC(=O)OC(C)(C)C)C(C)C)cc1` [P21D], for which the CC50 is more than 50 µM.

For the compound `CCc1ccc(NC(=O)[C@H](Cc2ccccc2)NC(=O)[C@@H](NC(=O)[C@H](Cc2ccccc2)NC(=O)OC(C)(C)C)C(C)C)cc1` [P21L], the CC50 is more than 50 µM.

Regarding `CCc1ccc(NC(=O)[C@H](Cc2ccccc2)NC(=O)[C@@H](NC(=O)[C@@H](N)Cc2ccccc2)C(C)C)cc1` [P22L], the CC50 is more than 50 µM.

A further data set deals with F32-ART parasites. Briefly: Parasitemia monitoring and parasite morphology upon drug exposure, F32-ART ring-stage parasites. In kind it is cell-based, Plasmodium falciparum. To be noted: 48 h exposure. The procedure: The effect of hybrid compounds against Plasmodium parasites was assessed by the microscopic examination of parasite morphology upon drug exposure. For this purpose, parasites were synchronized at 0–4 h age by percoll-sorbitol treatment, 0–24 h age by sorbitol treatment, or at schizont stage by percoll treatment at the start of the experiment. Different treatment schedules were tested. In the case of multiple doses, parasite cultures were washed before each new drug addition.
Take `CC(ON1C(C)(C)CCCC1(C)C)c1ccc(NC(=O)[C@H](Cc2ccccc2)NC(=O)[C@@H](NC(=O)[C@H](Cc2ccccc2)NC(=O)OC(C)(C)C)C(C)C)cc1` (stereo partly drawn) [A3L, Boc-Phe-Val-Phe-anilide-TEMPO]: the “effect on parasitemia and parasite cell cycle” value is “cytostatic-like effect”.

The subject of a further data set is P. falciparum strain F32-ART (artemisinin-resistant). Description: microbe, parasite or virus in culture. In kind it is cell-based, Plasmodium falciparum. To be noted: Plasmodium falciparum, F32, read-out: Antiplasmodial Activity IC50, strain F32-ART, SYBR Green assay, mean ± SEM of 3 to 6 experiments. The source says:
The antimalarial activity of peptide-alkoxyamine hybrids was first evaluated in the in vitro antiproliferative test (IC50) using the artemisinin-resistant strain F32-ART (Table 2, Table S1). The roles of the N-substitution of the alkoxyamine moiety (TEMPO- or DBNO-based, for example, A3L/A8L, line 1/line 10), of the configuration (L or D of the peptide, A3L/A3D, line 1/line 2), of the N-protection of the peptide (A3L/A4L or A5L, line 1/ lines 3 and 5) were examined. According to standard rules in the malaria field, only molecules having IC50 values below 1 μM were considered active.
The F32-ART (artemisinin-resistant) strain and the F32-TEM (artemisinin-sensitive strain) were cultured according to Trager and Jensen in RPMI 1640 medium (Fisher Scientific, Illkirch, France) supplemented with 5% human serum (Etablissement français du Sang, Toulouse, France) at 2% hematocrit with type O human blood (Etablissement français du Sang, Toulouse, France), 37 °C, and 5% CO2 in a humidified atmosphere.
IC50 values corresponding to 50% inhibition of P. falciparum growth were determined by SYBR Green assay, and the assessment of cytotoxicity was performed on Vero cells (cell line from the kidney of a normal adult African green monkey), as previously published. The selectivity index corresponded to the cytotoxicity/activity ratio.
On to `CC(ON1C(C)(C)CCCC1(C)C)c1ccc(NC(=O)[C@H](Cc2ccccc2)NC(=O)[C@@H](NC(=O)[C@H](Cc2ccccc2)NC(=O)OC(C)(C)C)C(C)C)cc1` (stereo partly drawn) [A3L, Boc-Phe-Val-Phe-anilide-TEMPO], for which the IC50 amounted to 0.3 ± 0.04 µM.

Take `CC(ON1C(C)(C)CCCC1(C)C)c1ccc(NC(=O)[C@H](Cc2ccccc2)NC(=O)[C@@H](NC(=O)[C@@H](N)Cc2ccccc2)C(C)C)cc1` (stereo partly drawn) [A4L]: the IC50 is more than 50 µM.

The data set is the same for the next values; noted with them: Plasmodium falciparum, F32, read-out: Antiplasmodial IC50, strain F32-ART.
`CC(ON1C(C)(C)CCCC1(C)C)c1ccc(NC(=O)[C@H](Cc2ccccc2)NC(=O)[C@@H](NC(=O)[C@H](Cc2ccccc2)NC(=O)OC(C)(C)C)C(C)C)cc1` (stereo partly drawn) [A3L, Boc-Phe-Val-Phe-anilide-TEMPO]: the IC50 was determined as 0.27 µM.

Still in this data set, the particulars now being: cytotoxicity (Vero cells)/antiplasmodial activity (F32-ART) ratio.
For the compound `CC(ON1C(C)(C)CCCC1(C)C)c1ccc(NC(=O)[C@H](Cc2ccccc2)NC(=O)[C@@H](NC(=O)[C@H](Cc2ccccc2)NC(=O)OC(C)(C)C)C(C)C)cc1` (stereo partly drawn) [A3L, Boc-Phe-Val-Phe-anilide-TEMPO], the “Selectivity Index CC50/IC50” value is on record as more than 165.

Staying with this data set, now noted: read-out: Antiplasmodial Activity IC50; strain F32-ART, SYBR Green assay, mean ± SEM of 3 to 6 experiments.
In the case of `CC(ON1C(C)(C)CCCC1(C)C)c1ccc(NC(=O)[C@H](Cc2ccccc2)NC(=O)[C@@H](NC(=O)[C@@H](N)Cc2ccccc2)C(C)C)cc1` (stereo partly drawn) [A5L], the IC50 was more than 50 µM.

Staying with this data set, now noted: strain F32-ART, SYBR Green assay, mean ± SEM of 3 to 6 experiments; read-out: Antiplasmodial Activity IC50.
On to `CC(C)[C@H](NC(=O)[C@@H](N)Cc1ccccc1)C(=O)N[C@@H](Cc1ccccc1)C(=O)O` [P11L] (H-Phe-Val-Phe-OH), for which the IC50 is more than 10 µM.

For `CC(C)[C@H](NC(=O)[C@H](Cc1ccccc1)NC(=O)CCC(=O)OCc1ccccc1)C(=O)N[C@@H](Cc1ccccc1)C(=O)O` [P12L], the half-inhibitory concentration (IC50) is more than 10 µM.

In the case of `CC(C)[C@H](NC(=O)[C@@H](N)Cc1ccccc1)C(=O)N[C@@H](Cc1ccccc1)C(=O)O` [P18L] (H-Phe-Val-Phe-OH), the IC50 is more than 5 µM.

In the case of `CCc1ccc(NC(=O)[C@@H](Cc2ccccc2)NC(=O)[C@H](NC(=O)[C@@H](Cc2ccccc2)NC(=O)OC(C)(C)C)C(C)C)cc1` [P21D], the IC50 was more than 50 µM.

For the compound `CCc1ccc(NC(=O)[C@H](Cc2ccccc2)NC(=O)[C@@H](NC(=O)[C@H](Cc2ccccc2)NC(=O)OC(C)(C)C)C(C)C)cc1` [P21L], the IC50 was more than 50 µM.

As for `CCc1ccc(NC(=O)[C@H](Cc2ccccc2)NC(=O)[C@@H](NC(=O)[C@@H](N)Cc2ccccc2)C(C)C)cc1` [P22L], the IC50 was more than 10 µM.

A further data set relates to S. mansoni.
Assay: not given
Details: method as in doi:10.1021/cr00014a008. To be noted: 100 μg/mL, in 2 h, in vitro ref 22; cited from earlier work.
As to `CC(ON1C(C)(C)CCCC1(C)C)c1ccc(NC(=O)[C@H](Cc2ccccc2)NC(=O)[C@@H](NC(=O)[C@@H](N)Cc2ccccc2)C(C)C)cc1` (stereo partly drawn) [A4L], the schistosomal population killed was 50%.

Turning to `CC(ON1C(C)(C)CCCC1(C)C)c1ccc(NC(=O)[C@H](Cc2ccccc2)NC(=O)[C@@H](NC(=O)[C@@H](N)Cc2ccccc2)C(C)C)cc1` (stereo partly drawn) [A5L], the schistosomal population killed is given as 50%.

In another data set the test system is F32-ART parasites at the quiescent stage. Briefly: Quiescent-stage Survival Assay (QSA). In kind it is cell-based, Plasmodium falciparum. To be noted: 700 nM DHA 6 h/(DHA + molecule 7 µM) 48 h. The procedure: In this assay, parasites were exposed to dihydroartemisinin (DHA) alone to induce quiescence, prior the addition of the drug to be tested for 48 h, and then the parasite recrudescence was monitored over a maximum of 4 weeks. Activity against quiescent parasites was evidenced by a delay in recrudescence time over 6 days between the conditions “DHA 6 h / DHA 48 h” and “DHA 6 h/(DHA + molecule) 48 h”. Atovaquone was used as a positive control, and its activity against quiescent parasites was here confirmed, as expected, by an extended delay of 11 days in recrudescence time (Figure 5). By contrast, no activity of A8L and A3L against quiescent parasites was evidenced in the QSA, with similar recrudescence time between the conditions “DHA 6 h/DHA 48 h” and “DHA 6 h/(DHA + molecule) 48 h”. […] To understand this phenomenon, we explored the parasite response during treatment with these hybrid compounds.
The QSA was performed according to Reyser et al.. Briefly, ART-resistant ring-stage parasites at 3% parasitemia were exposed for 6 h to 700 nM of DHA (dihydroartemisinin) to induce quiescence or were exposed to no drugs (control condition). After that, the compound to be tested was added in both conditions […]. At the end of the treatment, the drugs were washed off with RPMI-1640, and parasites were replaced in drug-free conditions. Blood smears were performed to follow parasitemia until the day the cultures reached their starting parasitemia, defined as the recrudescence day. If after 30 days no parasite recrudescence was observed, then the data were censored. Data analysis was performed using Kaplan–Meier survival curves. Statistical significance was ascertained by using a log-rank (Mantel-Cox) test using GraphPad Prism 7 software (San Diego, CA, USA).
Take `CC(ON1C(C)(C)CCCC1(C)C)c1ccc(NC(=O)[C@H](Cc2ccccc2)NC(=O)[C@@H](NC(=O)[C@H](Cc2ccccc2)NC(=O)OC(C)(C)C)C(C)C)cc1` (stereo partly drawn) [A3L, Boc-Phe-Val-Phe-anilide-TEMPO]: the “activity against quiescent parasites in the QSA” value was “no activity”.

Source of the values: article PMC10974622, “Hybrid Peptide-Alkoxyamine Drugs: A Strategy for the Development of a New Family of Antiplasmodial Drugs” (Molecules, 2024).
